Laboratory results from ChEMBL document CHEMBL3120136 (J Med Chem, 2014).

Key:
[1] = Inhibition of Hepatitis C virus full-length NS3/4A protease assessed as quenched-fluorogenic RET-S1 substrate cleavage incubated for 10 mins prior to substrate addition by FRET analysis; parameters: species or system Hepacivirus hominis
[2] = system: Hepatitis C virus; experiment: Antiviral activity against Hepatitis C virus infected in human HuH7 cells assessed as inhibition of HCV subgenomic replicon replication after 72 hrs by ELISA; format: functional, organism-based, Hepacivirus hominis, Huh-7; settings: Hepatitis C virus, Huh-7, 72 h; read-out: EC50

Structure (SMILES)	IC50 [1]	EC50 [2]
CC(C)(C)OC(=O)N[C@H]1CCCCC/C=C\[C@@H]2C[C@@]2(C(=O)O)NC(=O)[C@@H]2C[C@@H](OC(=O)N3Cc4ccc(F)cc4C3)CN2C1=O	38 nM	3220 nM
CC(C)(C)OC(=O)N[C@H]1CCCCC/C=C\[C@@H]2C[C@@]2(C(=O)NS(=O)(=O)N2CCNCC2)NC(=O)[C@@H]2C[C@@H](OC(=O)N3Cc4ccccc4C3)CN2C1=O	22 nM	509 nM
CC(C)(C)OC(=O)N[C@H]1CCCCC/C=C\[C@@H]2C[C@@]2(C(=O)NS(=O)(=O)C2CC2)NC(=O)[C@@H]2C[C@@H](OC(=O)N3CCc4cccc(C(F)(F)F)c4C3)CN2C1=O	0.8 nM	13 nM
CC(C)(C)OC(=O)N[C@H]1CCC(F)(F)CC/C=C\[C@@H]2C[C@@]2(C(=O)NS(=O)(=O)C2CC2)NC(=O)[C@@H]2C[C@@H](OC(=O)N3Cc4cccc(F)c4C3)CN2C1=O	1.5 nM	7.2 nM
CC(C)(C)OC(=O)N[C@H]1CCCC(F)(F)CCC[C@@H]2C[C@@]2(C(=O)NS(=O)(=O)C2CC2)NC(=O)[C@@H]2C[C@@H](OC(=O)N3Cc4cccc(F)c4C3)CN2C1=O	1.3 nM	46 nM
CC(C)(C)OC(=O)N[C@H]1CCCCC/C=C\[C@@H]2C[C@@]2(C(=O)NS(=O)(=O)N2CCC2)NC(=O)[C@@H]2C[C@@H](OC(=O)N3Cc4ccccc4C3)CN2C1=O	2.4 nM	6.5 nM
CC(C)(C)OC(=O)N[C@H]1CCCCC/C=C\[C@@H]2C[C@@]2(C(=O)NS(=O)(=O)C2CC2)NC(=O)[C@@H]2C[C@@H](NS(=O)(=O)c3cccc4ccccc34)CN2C1=O	470 nM	> 10000 nM
CC(C)(C)OC(=O)N[C@H]1CCC(F)(F)CCCC[C@@H]2C[C@@]2(C(=O)NS(=O)(=O)C2CC2)NC(=O)[C@@H]2C[C@@H](OC(=O)N3Cc4cccc(F)c4C3)CN2C1=O	0.8 nM	6.8 nM
COc1ccc(S(=O)(=O)NC(=O)[C@@]23C[C@H]2/C=C\CCCCC[C@H](NC(=O)OC(C)(C)C)C(=O)N2C[C@H](OC(=O)N4Cc5ccccc5C4)C[C@H]2C(=O)N3)cc1	4.1 nM	10 nM
CC(C)S(=O)(=O)NC(=O)[C@@]12C[C@H]1/C=C\CCCCC[C@H](NC(=O)OC(C)(C)C)C(=O)N1C[C@H](OC(=O)N3Cc4ccccc4C3)C[C@H]1C(=O)N2	4.8 nM	21 nM
CC(C)(C)OC(=O)N[C@H]1CCCOC/C=C\[C@@H]2C[C@@]2(C(=O)NS(=O)(=O)C2CC2)NC(=O)[C@@H]2C[C@@H](OC(=O)N3Cc4cccc(F)c4C3)CN2C1=O	0.8 nM	155 nM
CC(C)(C)OC(=O)N[C@H]1CCCCC/C=C\[C@@H]2C[C@@]2(C(=O)NS(=O)(=O)c2ccc(Cl)cc2)NC(=O)[C@@H]2C[C@@H](OC(=O)N3Cc4ccccc4C3)CN2C1=O	3 nM	58 nM
CC(C)(C)OC(=O)N[C@H]1CCNCC/C=C\[C@@H]2C[C@@]2(C(=O)NS(=O)(=O)C2CC2)NC(=O)[C@@H]2C[C@@H](OC(=O)N3Cc4cccc(F)c4C3)CN2C1=O	9.7 nM	1830 nM
CN1CCN(c2ccc3c(c2)CN(C(=O)O[C@@H]2C[C@H]4C(=O)N[C@]5(C(=O)NS(=O)(=O)C6CC6)C[C@H]5/C=C\CCCCC[C@H](NC(=O)OC(C)(C)C)C(=O)N4C2)C3)CC1	2 nM	41 nM
CC(=O)O[C@@H]1C[C@H]2C(=O)N[C@]3(C(=O)NS(=O)(=O)C4CC4)C[C@H]3/C=C\CCCCC[C@H](NC(=O)OC(C)(C)C)C(=O)N2C1	12 nM	3910 nM
CC(C)(C)OC(=O)N[C@H]1CCCCC/C=C\[C@@H]2C[C@@]2(C(=O)NS(=O)(=O)c2cc(Cl)sc2Cl)NC(=O)[C@@H]2C[C@@H](OC(=O)N3Cc4ccccc4C3)CN2C1=O	0.5 nM	32 nM

Structure (SMILES)	IC50 [1]	EC50 [2]
CC(C)(C)OC(=O)N[C@H]1CCCCC/C=C\[C@@H]2C[C@@]2(C(=O)O)NC(=O)[C@@H]2C[C@@H](OC(=O)N3Cc4ccccc4C3)CN2C1=O	11 nM	1550 nM
CC(C)(C)OC(=O)N[C@H]1CCCCC/C=C\[C@@H]2C[C@@]2(C(=O)O)NC(=O)[C@@H]2C[C@@H](OC(=O)N3Cc4cccc(F)c4C3)CN2C1=O	10 nM	1270 nM
CC(C)(C)OC(=O)N[C@H]1CCCCC/C=C\[C@@H]2C[C@@]2(C(=O)NS(=O)(=O)C2CC2)NC(=O)[C@@H]2C[C@@H](NC(=O)c3nc4ccccc4[nH]3)CN2C1=O	6.4 nM	614 nM
CN(C)c1cccc2c1CCN(C(=O)O[C@@H]1C[C@H]3C(=O)N[C@]4(C(=O)NS(=O)(=O)C5CC5)C[C@H]4/C=C\CCCCC[C@H](NC(=O)OC(C)(C)C)C(=O)N3C1)C2	2.4 nM	20 nM
O=C(N[C@H]1CCCCC/C=C\[C@@H]2C[C@@]2(C(=O)NS(=O)(=O)C2CC2)NC(=O)[C@@H]2C[C@@H](OC(=O)N3Cc4ccccc4C3)CN2C1=O)O[C@H]1CCOC1	2.2 nM	217 nM
CC(C)(C)OC(=O)N[C@H]1CCCCC/C=C\[C@@H]2C[C@@]2(C(=O)NS(=O)(=O)Nc2ccc(Cl)cc2)NC(=O)[C@@H]2C[C@@H](OC(=O)N3Cc4ccccc4C3)CN2C1=O	7.9 nM	97 nM
CC(C)(C)OC(=O)N[C@H]1CCCCC/C=C\[C@@H]2C[C@@]2(C(=O)NS(=O)(=O)c2ccccc2)NC(=O)[C@@H]2C[C@@H](OC(=O)N3Cc4ccccc4C3)CN2C1=O	3.5 nM	11 nM
CC(C)(C)OC(=O)N[C@H]1CCCCC/C=C\[C@@H]2C[C@@]2(C(=O)NS(=O)(=O)C2CC2)NC(=O)[C@@H]2C[C@@H](OC(=O)N3Cc4cccc(N)c4C3)CN2C1=O	0.2 nM	4.1 nM
CC(C)(C)OC(=O)N[C@H]1CCCCC/C=C\[C@@H]2C[C@@]2(C(=O)NS(=O)(=O)C2CC2)NC(=O)[C@@H]2C[C@@H](NC(=O)N3Cc4ccccc4C3)CN2C1=O	2.3 nM	47 nM
CC(C)(C)OC(=O)N[C@H]1CCCCC/C=C\[C@@H]2C[C@@]2(C(=O)NS(=O)(=O)C2CC2)NC(=O)[C@@H]2C[C@@H](OC(=O)N3Cc4c(F)ccc(F)c4C3)CN2C1=O	0.7 nM	5.1 nM
O=C(N[C@H]1CCCCC/C=C\[C@@H]2C[C@@]2(C(=O)NS(=O)(=O)C2CC2)NC(=O)[C@@H]2C[C@@H](OC(=O)N3Cc4ccccc4C3)CN2C1=O)OCCF	1.5 nM	54 nM
CC(C)(C)OC(=O)N[C@H]1COCCCCC[C@@H]2C[C@@]2(C(=O)NS(=O)(=O)C2CC2)NC(=O)[C@@H]2C[C@@H](OC(=O)N3Cc4cccc(F)c4C3)CN2C1=O	1.2 nM	12.4 nM
CC(C)(C)OC(=O)N[C@H]1CCCCC/C=C\[C@@H]2C[C@@]2(C(=O)NS(=O)(=O)C2CC2)NC(=O)[C@@H]2C[C@@H](OC(=O)N3Cc4cccc(Br)c4C3)CN2C1=O	1.1 nM	49 nM
CC(C)(C)OC(=O)N[C@H]1CCCCC/C=C\[C@@H]2C[C@@]2(C(=O)NS(=O)(=O)C2CC2)NC(=O)[C@@H]2C[C@@H](OC(=O)N3Cc4cccc(Cl)c4C3)CN2C1=O	3 nM	2.2 nM
CC(C)(C)OC(=O)N[C@H]1CCCCC/C=C\[C@@H]2C[C@@]2(C(=O)NS(=O)(=O)c2cc(F)ccc2F)NC(=O)[C@@H]2C[C@@H](OC(=O)N3Cc4ccccc4C3)CN2C1=O	0.7 nM	285 nM
